Experimental data as given in patent US20230019236A1, “PROTEIN TYROSINE PHOSPHATASE INHIBITORS AND METHODS OF USE THEREOF” (Calico Life Sciences LLC, priority 2019, published 2023).

Biological target: T1, His tagged full-length PTP1B protein (Homo sapiens, UniProt P18031)
T1 construct: made in house
T1 sequence (P18031 with tags, fused parts or gaps): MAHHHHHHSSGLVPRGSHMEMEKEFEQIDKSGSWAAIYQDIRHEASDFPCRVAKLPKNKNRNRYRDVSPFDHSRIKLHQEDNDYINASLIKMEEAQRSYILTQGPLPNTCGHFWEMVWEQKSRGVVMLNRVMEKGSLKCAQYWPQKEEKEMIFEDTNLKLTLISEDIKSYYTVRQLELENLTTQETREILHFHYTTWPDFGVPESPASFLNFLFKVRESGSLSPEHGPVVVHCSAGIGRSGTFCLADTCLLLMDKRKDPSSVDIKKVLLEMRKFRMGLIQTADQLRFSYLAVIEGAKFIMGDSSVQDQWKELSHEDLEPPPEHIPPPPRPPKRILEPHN
Assay: Mobility Shift Assay (MSA) used to determine potency of PTP1B inhibitors
Assay type: biochemical
Conditions: Table 2
Description: The enzymatic assay used to determine activity is a mobility shift assay using a LabChip EZ Reader by Caliper Life Sciences. The enzymatic reaction was carried out in assay buffer (50 mM HEPES pH 7.5, 1 mM EGTA, 10 mM EDTA, 0.01% Tween® 20, and 2 mM DTT). […] The enzyme (at 0.5 nM) was incubated with compound for 10 minutes at room temperature. […] The % inhibition was then used to calculate the IC50 values.

**Q.** For `N#CC1(CNc2ccc3cc(O)c(N4CC(=O)NS4(=O)=O)c(F)c3c2)CC1` [Compound 181, 1-({[8-fluoro-6-hydroxy-7-(1,1,4-trioxo-1λ^6,2,5-thiadiazolidin-2-yl)naphthalen-2-yl]amino}methyl)cyclopropane-1-carbonitrile], which IC50 is on record?
**A.** Its IC50 is 1 to 10 nM.

**Q.** With `O=C1CN(c2c(O)cc3ccc(OCCNC4CC4)cc3c2F)S(=O)(=O)N1` [Compound 142, 5-{7-[2-(cyclopropylamino)ethoxy]-1-fluoro-3-hydroxynaphthalen-2-yl}-1λ^6,2,5-thiadiazolidine-1,1,3-trione] as the molecule, how does the IC50 read?
**A.** The IC50 was 10 to 100 nM.

**Q.** `CCS(=O)(=O)N1CC=C(c2ccc3cc(O)c(N4CC(=O)NS4(=O)=O)c(F)c3c2)C1` [Compound 295, 5-{7-[1-(ethanesulfonyl)-2,5-dihydro-1H-pyrrol-3-yl]-1-fluoro-3-hydroxynaphthalen-2-yl}-1λ^6,2,5-thiadiazolidine-1,1,3-trione] was tested. Which IC50 did it give?
**A.** The IC50 was less than 1 nM.

**Q.** How did the IC50 turn out when `O=C1CN(c2c(O)cc3ccc(OCCC4CC4)cc3c2F)S(=O)(=O)N1` [Compound 211, 5-[7-(2-cyclopropylethoxy)-1-fluoro-3-hydroxynaphthalen-2-yl]-1λ^6,2,5-thiadiazolidine-1,1,3-trione] was run?
**A.** The IC50 was less than 1 nM.

**Q.** Which IC50 does the source give for `O=C1CN(c2c(O)cc3ccc(NCCC4CC4)cc3c2F)S(=O)(=O)N1` [Compound 224, 5-{7-[(2-cyclopropylethyl)amino]-1-fluoro-3-hydroxynaphthalen-2-yl}-1λ^6,2,5-thiadiazolidine-1,1,3-trione] here?
**A.** The IC50 was 1 to 10 nM.

**Q.** For `O=C1CN(c2c(O)cc3ccc(CNCC4CC4)cc3c2F)S(=O)(=O)N1` [Compound 161, 5-(7-{[(cyclopropylmethyl)amino]methyl}-1-fluoro-3-hydroxynaphthalen-2-yl)-1λ^6,2,5-thiadiazolidine-1,1,3-trione], which IC50 is on record?
**A.** Its IC50 is 10 to 100 nM.

**Q.** Which IC50 does the source give for `O=C1CN(c2c(O)cc3ccc(OCCNCCOC(F)(F)F)cc3c2F)S(=O)(=O)N1` [Compound 137, 5-[1-fluoro-3-hydroxy-7-(2-{[2-(trifluoromethoxy)ethyl]amino}ethoxy)naphthalen-2-yl]-1λ^6,2,5-thiadiazolidine-1,1,3-trione] here?
**A.** Its IC50 is 1 to 10 nM.

**Q.** `O=C1CN(c2c(O)cc3ccc4occc4c3c2F)S(=O)(=O)N1` [Compound 104, 5-(9-fluoro-7-hydroxynaphtho[2,1-b]furan-8-yl)-1λ^6,2,5-thiadiazolidine-1,1,3-trione] was tested. Which IC50 did it give?
**A.** The IC50 was 10 to 100 nM.

**Q.** Which IC50 does the source give for `O=C1CN(c2c(O)cc3ccc(CC4CN(S(=O)(=O)C5CC5)C4)cc3c2F)S(=O)(=O)N1` [Compound 256, 5-(7-{[1-(cyclopropanesulfonyl)azetidin-3-yl]methyl}-1-fluoro-3-hydroxynaphthalen-2-yl)-1λ^6,2,5-thiadiazolidine-1,1,3-trione] here?
**A.** Its IC50 is 1 to 10 nM.

**Q.** `O=C1CN(c2c(O)cc3ccc(OCCN4CCOCC4)cc3c2F)S(=O)(=O)N1` [Compound 100, 5-{1-fluoro-3-hydroxy-7-[2-(morpholin-4-yl)ethoxy]naphthalen-2-yl}-1λ^6,2,5-thiadiazolidine-1,1,3-trione] was tested. Which IC50 did it give?
**A.** Its IC50 is 10 to 100 nM.

**Q.** How did the IC50 turn out when `N#CCc1ccc2cc(O)c(N3CC(=O)NS3(=O)=O)c(F)c2c1` [Compound 228, [8-fluoro-6-hydroxy-7-(1,1,4-trioxo-1λ^6,2,5-thiadiazolidin-2-yl)naphthalen-2-yl]acetonitrile] was run?
**A.** The IC50 was 10 to 100 nM.

**Q.** How did the IC50 turn out when `CC1(COc2ccc3cc(O)c(N4CC(=O)NS4(=O)=O)c(F)c3c2)COC1` [Compound 230, 5-{1-fluoro-3-hydroxy-7-[(3-methyloxetan-3-yl)methoxy]naphthalen-2-yl}-1λ^6,2,5-thiadiazolidine-1,1,3-trione] was run?
**A.** Its IC50 is greater than 100 nM.

**Q.** Which IC50 does the source give for `CC(C)CNc1ccc2cc(O)c(N3CC(=O)NS3(=O)=O)c(F)c2c1` [Compound 201, 5-{1-fluoro-3-hydroxy-7-[(2-methylpropyl)amino]naphthalen-2-yl}-1λ^6,2,5-thiadiazolidine-1,1,3-trione] here?
**A.** Its IC50 is 1 to 10 nM.

**Q.** `CC(C)(N)CCOc1ccc2cc(O)c(N3CC(=O)NS3(=O)=O)c(F)c2c1` [Compound 165, 5-[7-(3-amino-3-methylbutoxy)-1-fluoro-3-hydroxynaphthalen-2-yl]-1λ^6,2,5-thiadiazolidine-1,1,3-trione] was tested. Which IC50 did it give?
**A.** Its IC50 is 1 to 10 nM.

**Q.** How did the IC50 turn out when `COCc1ccc2cc(O)c(N3CC(=O)NS3(=O)=O)c(F)c2c1` [Compound 229, 5-[1-fluoro-3-hydroxy-7-(methoxymethyl)naphthalen-2-yl]-1λ^6,2,5-thiadiazolidine-1,1,3-trione] was run?
**A.** The IC50 was 10 to 100 nM.

**Q.** `O=C1CN(c2c(O)cc3ccc(C4CCNCC4)cc3c2F)S(=O)(=O)N1` [Compound 299, 5-[1-fluoro-3-hydroxy-7-(piperidin-4-yl)naphthalen-2-yl]-1λ^6,2,5-thiadiazolidine-1,1,3-trione] was tested. Which IC50 did it give?
**A.** Its IC50 is 10 to 100 nM.

**Q.** For `O=C1CN(c2c(O)cc3ccc(NCCc4ccccc4)cc3c2F)S(=O)(=O)N1` [Compound 164, 5-{1-fluoro-3-hydroxy-7-[(2-phenylethyl)amino]naphthalen-2-yl}-1λ^6,2,5-thiadiazolidine-1,1,3-trione], which IC50 is on record?
**A.** Its IC50 is greater than 100 nM.

**Q.** For `CC(C)OCCOc1ccc2cc(O)c(N3CC(=O)NS3(=O)=O)c(F)c2c1` [Compound 215, 5-(1-fluoro-3-hydroxy-7-{2-[(propan-2-yl)oxy]ethoxy}naphthalen-2-yl)-1λ^6,2,5-thiadiazolidine-1,1,3-trione], which IC50 is on record?
**A.** Its IC50 is 1 to 10 nM.

**Q.** How did the IC50 turn out when `O=C1CN(c2c(O)cc3ccc(C4=CCN(S(=O)(=O)c5ccoc5)C4)cc3c2F)S(=O)(=O)N1` [Compound 312, 5-{1-fluoro-7-[1-(furan-3-sulfonyl)-2,5-dihydro-1H-pyrrol-3-yl]-3-hydroxynaphthalen-2-yl}-1λ^6,2,5-thiadiazolidine-1,1,3-trione] was run?
**A.** The IC50 was less than 1 nM.

**Q.** For `O=C1CN(c2c(O)cc3ccc(C4=CCN(S(=O)(=O)CCCC(F)(F)F)C4)cc3c2F)S(=O)(=O)N1` [Compound 290, 5-{1-fluoro-3-hydroxy-7-[1-(4,4,4-trifluorobutane-1-sulfonyl)-2,5-dihydro-1H-pyrrol-3-yl]naphthalen-2-yl}-1λ^6,2,5-thiadiazolidine-1,1,3-trione], which IC50 is on record?
**A.** The IC50 was less than 1 nM.

**Q.** `COc1ccc2cc(O)c(N3CC(=O)NS3(=O)=O)c(F)c2c1Cl` [Compound 234, 5-(8-chloro-1-fluoro-3-hydroxy-7-methoxynaphthalen-2-yl)-1λ^6,2,5-thiadiazolidine-1,1,3-trione] was tested. Which IC50 did it give?
**A.** The IC50 was 10 to 100 nM.

**Q.** How did the IC50 turn out when `CNCCCc1ccc2cc(O)c(N3CC(=O)NS3(=O)=O)c(F)c2c1` [Compound 139, 5-{1-fluoro-3-hydroxy-7-[3-(methylamino)propyl]naphthalen-2-yl}-1λ^6,2,5-thiadiazolidine-1,1,3-trione] was run?
**A.** Its IC50 is 10 to 100 nM.

**Q.** With `C[C@H](O)CCCc1ccc2cc(O)c(N3CC(=O)NS3(=O)=O)c(F)c2c1` [Compound 153, 5-{1-fluoro-3-hydroxy-7-[(4S)-4-hydroxypentyl]naphthalen-2-yl}-1λ^6,2,5-thiadiazolidine-1,1,3-trione] as the molecule, how does the IC50 read?
**A.** Its IC50 is 1 to 10 nM.

**Q.** Which IC50 does the source give for `O=C1CN(c2c(O)cc3ccc(CCC4CC4)cc3c2F)S(=O)(=O)N1` [Compound 209, 5-[7-(2-cyclopropylethyl)-1-fluoro-3-hydroxynaphthalen-2-yl]-1λ^6,2,5-thiadiazolidine-1,1,3-trione] here?
**A.** Its IC50 is 10 to 100 nM.

**Q.** Which IC50 does the source give for `CNCCOc1ccc2cc(O)c(N3CC(=O)NS3(=O)=O)c(F)c2c1` [Compound 143, 5-{1-fluoro-3-hydroxy-7-[2-(methylamino)ethoxy]naphthalen-2-yl}-1λ^6,2,5-thiadiazolidine-1,1,3-trione] here?
**A.** The IC50 was 10 to 100 nM.

**Q.** With `O=C1CN(c2c(O)cc3ccc(-c4cnn(S(=O)(=O)C5CC5)c4)cc3c2F)S(=O)(=O)N1` [Compound 303, 5-{7-[1-(cyclopropanesulfonyl)-1H-pyrazol-4-yl]-1-fluoro-3-hydroxynaphthalen-2-yl}-1λ^6,2,5-thiadiazolidine-1,1,3-trione] as the molecule, how does the IC50 read?
**A.** Its IC50 is 1 to 10 nM.

**Q.** How did the IC50 turn out when `O=C(COc1ccc2cc(O)c(N3CC(=O)NS3(=O)=O)c(F)c2c1)NCCC1CC1` [Compound 281, N-(2-cyclopropylethyl)-2-{[8-fluoro-6-hydroxy-7-(1,1,4-trioxo-1λ^6,2,5-thiadiazolidin-2-yl)naphthalen-2-yl]oxy}acetamide] was run?
**A.** Its IC50 is 10 to 100 nM.

**Q.** `O=C1CN(c2c(O)cc3ccc(C4=CCN(CC(F)(F)F)CC4)cc3c2F)S(=O)(=O)N1` [Compound 275, 5-{1-fluoro-3-hydroxy-7-[1-(2,2,2-trifluoroethyl)-1,2,3,6-tetrahydropyridin-4-yl]naphthalen-2-yl}-1λ^6,2,5-thiadiazolidine-1,1,3-trione] was tested. Which IC50 did it give?
**A.** Its IC50 is 10 to 100 nM.

**Q.** For `CCCOc1ccc2cc(O)c(N3CC(=O)NS3(=O)=O)c(F)c2c1` [Compound 278, 5-(1-fluoro-3-hydroxy-7-propoxynaphthalen-2-yl)-1λ^6,2,5-thiadiazolidine-1,1,3-trione], which IC50 is on record?
**A.** The IC50 was 10 to 100 nM.

**Q.** With `O=C1CN(c2c(O)cc3ccc(OCCn4cccn4)cc3c2F)S(=O)(=O)N1` [Compound 188, 5-{1-fluoro-3-hydroxy-7-[2-(1H-pyrazol-1-yl)ethoxy]naphthalen-2-yl}-1λ^6,2,5-thiadiazolidine-1,1,3-trione] as the molecule, how does the IC50 read?
**A.** The IC50 was 1 to 10 nM.

**Q.** For `O=C1CN(c2c(O)cc3ccc(C4=CCN(S(=O)(=O)c5ccsc5)C4)cc3c2F)S(=O)(=O)N1` [Compound 314, 5-{1-fluoro-3-hydroxy-7-[1-(thiophene-3-sulfonyl)-2,5-dihydro-1H-pyrrol-3-yl]naphthalen-2-yl}-1λ^6,2,5-thiadiazolidine-1,1,3-trione], which IC50 is on record?
**A.** Its IC50 is less than 1 nM.

**Q.** For `[2H]c1c(O)c(N2C([2H])([2H])C(=O)NS2(=O)=O)c(F)c2cc(OC)ccc12` [Compound 106, 5-[1-fluoro-3-hydroxy-7-methoxy(4-^2H)naphthalen-2-yl](4,4-2H2)-1λ^6,2,5-thiadiazolidine-1,1,3-trione], which IC50 is on record?
**A.** The IC50 was 1 to 10 nM.
